Reference: ChEMBL document CHEMBL4024754, “Development of Potent, Protease-Resistant Agonists of the Parathyroid Hormone Receptor with Broad β Residue Distribution” (J Med Chem, 2017)
pEC50: −log10 of the molar value. Numbered stars: 1 amine (or outer) side, 2 acyl side, 3 side chain; on linkers, the order of the positions; unused ones are H or OH. Square brackets hold non-standard residues; d marks the D form. Peptide text beside a SMILES is read from it. * marks the point of attachment. NH(1S,2S-2-CONH2-cPent) = NC(=O)[C@H]1CCC[C@@H]1N*; β3hW = N[C@H](CC(=O)O)Cc1c[nH]c2ccccc12; ACPC(1S,2S) = N[C@H]1CCC[C@@H]1C(=O)*; X1 = O=C([C@H]1CCC[C@@H]1N[*:1])[*:2]; X2 = O=C([C@H]1CNC[C@@H]1N[*:1])[*:2]; hArg = N=C(N)NCCCC[C@H](N)C(=O)O; β3hE = N[C@@H](CCC(=O)O)CC(=O)O; β3hF = N[C@H](CC(=O)O)Cc1ccccc1; β3hK = NCCCC[C@H](N)CC(=O)O; β3hM = CSCC[C@H](N)CC(=O)O; β3hD = NC(CC(=O)O)CC(=O)O; Aib = CC(C)(N)C(=O)O

Legend:
[1] = target: T1, Parathyroid hormone/parathyroid hormone-related peptide receptor (Homo sapiens) (UniProt Q03431); assay: Agonist activity at human PTH1 receptor expressed in human GP2.3 cells assessed as induction of cAMP after 12 to 20 mins by luciferase reporter gene assay relative to PTH(1 to 34 residues)-NH2; type: functional, cell-based
T1 sequence (whole entry): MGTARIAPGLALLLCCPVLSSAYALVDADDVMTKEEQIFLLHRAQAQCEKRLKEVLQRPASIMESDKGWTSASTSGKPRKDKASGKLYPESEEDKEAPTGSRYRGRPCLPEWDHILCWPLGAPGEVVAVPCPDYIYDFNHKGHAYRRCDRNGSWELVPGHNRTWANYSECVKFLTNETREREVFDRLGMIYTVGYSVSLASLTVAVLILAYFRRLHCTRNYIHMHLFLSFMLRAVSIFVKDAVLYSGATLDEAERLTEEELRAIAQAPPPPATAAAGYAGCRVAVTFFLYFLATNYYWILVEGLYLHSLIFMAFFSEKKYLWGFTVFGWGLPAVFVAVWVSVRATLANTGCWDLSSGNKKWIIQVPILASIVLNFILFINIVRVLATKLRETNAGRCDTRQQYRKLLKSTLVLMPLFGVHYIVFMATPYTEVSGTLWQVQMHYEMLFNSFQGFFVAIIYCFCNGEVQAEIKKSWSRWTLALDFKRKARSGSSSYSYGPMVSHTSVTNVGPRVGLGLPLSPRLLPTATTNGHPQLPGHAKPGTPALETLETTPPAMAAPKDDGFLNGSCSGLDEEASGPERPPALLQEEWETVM

[2] = target: T2, Parathyroid hormone/parathyroid hormone-related peptide receptor (Homo sapiens, UniProt Q03431); assay: Agonist activity at human PTH1 receptor expressed in human GP2.3 cells assessed as induction of cAMP after 12 to 20 mins by luciferase reporter gene assay; type: functional, cell-based; conditions: read-out: EC50
T2 sequence (Q03431 whole entry): T1 sequence (whole entry)

Row | fold change (FC) [1] | pEC50 [2] | Compound
1 | 6.3 | 9.29 | CC[C@H](C)[C@H](NC(=O)[C@H](CCC(=O)O)NC(=O)[C@H](C)NC(=O)[C@@H](NC(=O)[C@H](C)N)C(C)C)C(=O)N[C@@H](CCC(N)=O)C(=O)N[C@@H](CC(C)C)C(=O)N[C@@H](CCSC)C(=O)N[C@@H](Cc1cnc[nH]1)C(=O)N[C@@H](CCC(N)=O)C(=O)N[C@@H](CCCCNC(=N)N)C(=O)N[C@@H](C)C(=O)N[C@@H](CCCCN)C(=O)N[C@H]1CCC[C@@H]1C(=O)N[C@@H](CC(C)C)C(=O)N[C@@H](CC(N)=O)C(=O)N[C@@H](CO)C(=O)N[C@H]1CCC[C@@H]1C(=O)N[C@@H](CCCNC(=N)N)C(=O)N[C@@H](CCCNC(=N)N)C(=O)N[C@H](C(=O)N[C@H]1CNC[C@@H]1C(=O)N[C@@H](Cc1c[nH]c2ccccc12)C(=O)N[C@@H](CC(C)C)C(=O)N[C@@H](CCCNC(=N)N)C(=O)N[C@H]1CNC[C@@H]1C(=O)N[C@@H](CCCCN)C(=O)N[C@@H](CC(C)C)C(=O)N[C@@H](CCC(N)=O)C(=O)N[C@H]1CCC[C@@H]1C(=O)N[C@H](C(=O)N[C@@H](Cc1cnc[nH]1)C(=O)N[C@@H](CC(N)=O)C(=O)N[C@H]1CCC[C@@H]1C(N)=O)C(C)C)C(C)C (H-AVAEIQLMHQ[hArg]AK[X1]LNS[X1]RRV[X2]WLR[X2]KLQ[X1]VHN-{NH(1S,2S-2-CONH2-cPent)})
2 | 4.9 | 9.40 | CSCC[C@H](NC(=O)[C@H](CO)NC(=O)[C@H](CC(N)=O)NC(=O)[C@H](CC(C)C)NC(=O)[C@H](Cc1c[nH]c2ccccc12)NC(=O)[C@H](CCCCN)NC(=O)[C@H](C)NC(=O)[C@H](CCCCNC(=N)N)NC(=O)[C@H](CCC(N)=O)NC(=O)[C@H](Cc1cnc[nH]1)NC(=O)[C@H](CCSC)NC(=O)[C@H]1CCC[C@@H]1NC(=O)[C@H](CCC(N)=O)NC(=O)[C@H]1CCC[C@@H]1NC(=O)[C@H](CCC(=O)O)NC(=O)C(C)(C)NC(=O)[C@@H](NC(=O)[C@H]1CCC[C@@H]1N)C(C)C)C(=O)N[C@@H](CCCNC(=N)N)C(=O)N[C@@H](CCCNC(=N)N)C(=O)N[C@H](C(=O)N[C@@H](CCC(=O)O)C(=O)N[C@@H](Cc1c[nH]c2ccccc12)C(=O)N[C@@H](CC(C)C)C(=O)N[C@@H](CCCNC(=N)N)C(=O)N[C@@H](CCCCN)C(=O)N[C@@H](CCCCN)C(=O)N[C@@H](CC(C)C)C(=O)N[C@@H](CCC(N)=O)C(=O)N[C@@H](CC(=O)O)C(=O)N[C@H](C(=O)N[C@@H](Cc1cnc[nH]1)C(=O)N[C@@H](CC(N)=O)C(=O)N[C@@H](Cc1ccccc1)C(N)=O)C(C)C)C(C)C ({ACPC(1S,2S)}-V[Aib]E[X1]Q[X1]MHQ[hArg]AKWLNSMRRVEWLRKKLQDVHNF-NH2)

Row | Compound | fold change (FC) [1] | pEC50 [2]
3 | CC[C@H](C)[C@H](NC(=O)[C@H](CCC(=O)O)NC(=O)[C@H](CO)NC(=O)[C@@H](NC(=O)[C@H]1CCC[C@@H]1N)C(C)C)C(=O)N[C@@H](CCC(N)=O)C(=O)N[C@H]1CCC[C@@H]1C(=O)N[C@@H](CCSC)C(=O)N[C@@H](Cc1cnc[nH]1)C(=O)N[C@@H](CC(N)=O)C(=O)N[C@@H](CC(C)C)C(=O)NCC(=O)N[C@@H](CCCCN)C(=O)N[C@H](CC(=O)N[C@@H](CC(C)C)C(=O)N[C@@H](CC(N)=O)C(=O)N[C@@H](CO)C(=O)N[C@@H](CCSC)CC(=O)N[C@@H](CCC(=O)O)C(=O)N[C@@H](CCCNC(=N)N)C(=O)N[C@H](C(=O)N[C@@H](CCC(=O)O)CC(=O)N[C@@H](Cc1c[nH]c2ccccc12)C(=O)N[C@@H](CC(C)C)C(=O)N[C@@H](CCCNC(=N)N)C(=O)N[C@@H](CCCCN)CC(=O)N[C@@H](CCCCN)C(=O)N[C@@H](CC(C)C)C(=O)N[C@@H](CCC(N)=O)C(=O)N[C@@H](CC(=O)O)CC(=O)N[C@H](C(=O)N[C@@H](Cc1cnc[nH]1)C(=O)N[C@@H](CC(N)=O)C(=O)N[C@H](CC(N)=O)Cc1ccccc1)C(C)C)C(C)C)Cc1c[nH]c2ccccc12 ({ACPC(1S,2S)}-VSEIQ[X1]MHNLGK[β3hW]LNS[β3hM]ERV[β3hE]WLR[β3hK]KLQ[β3hD]VHN[β3hF]-NH2) | 22.6 | 8.74
